Assay results: the NIST ThermoML archive (doi:10.1021/acs.jced.8b00132)
Where “and” joins values, the source holds several entries; their conditions need not be identical. Equal entries are not always repeated. Numbers after ± are expanded uncertainties.

Conditions: Liquid, transient hot wire

O=C(C(F)(F)C(F)(F)F)C(F)(C(F)(F)F)C(F)(F)F [dodecafluoro-2-methylpentan-3-one]
thermal conductivity (192.97 K, 9415 kPa): 0.07862 ± 0.0016 W/m/K | thermal conductivity (192.97 K, 9417 kPa): 0.07861 ± 0.0016 W/m/K | thermal conductivity (192.98 K, 6038 kPa): 0.0783 ± 0.0016 W/m/K | thermal conductivity (192.98 K, 6049 kPa): 0.07834 ± 0.0016 W/m/K | thermal conductivity (192.99 K, 167 kPa): 0.07692 ± 0.0016 W/m/K | thermal conductivity (192.99 K, 173 kPa): 0.07695 ± 0.0016 W/m/K | thermal conductivity (193 K, 151 kPa): 0.07702 ± 0.0016 W/m/K | thermal conductivity (193 K, 154 kPa): 0.07718 ± 0.0016 W/m/K | thermal conductivity (193.29 K, 67553 kPa): 0.08802 ± 0.0018 W/m/K | thermal conductivity (193.29 K, 67565 kPa): 0.0877 ± 0.0018 W/m/K | thermal conductivity (193.3 K, 61029 kPa): 0.08639 ± 0.0018 W/m/K | thermal conductivity (193.31 K, 52610 kPa): 0.086 ± 0.0018 W/m/K | thermal conductivity (193.31 K, 52615 kPa): 0.08604 ± 0.0018 W/m/K | thermal conductivity (193.31 K, 61018 kPa): 0.08674 ± 0.0018 W/m/K | thermal conductivity (193.33 K, 44206 kPa): 0.08413 ± 0.0017 W/m/K | thermal conductivity (193.33 K, 44213 kPa): 0.08424 ± 0.0017 W/m/K | thermal conductivity (193.35 K, 36147 kPa): 0.08312 ± 0.0017 W/m/K | thermal conductivity (193.35 K, 36154 kPa): 0.08322 ± 0.0017 W/m/K | thermal conductivity (193.37 K, 28301 kPa): 0.08185 ± 0.0017 W/m/K | thermal conductivity (193.37 K, 28302 kPa): 0.08165 ± 0.0017 W/m/K | thermal conductivity (193.42 K, 20237 kPa): 0.08068 ± 0.0017 W/m/K | thermal conductivity (193.43 K, 20237 kPa): 0.08099 ± 0.0017 W/m/K | thermal conductivity (193.45 K, 13265 kPa): 0.07982 ± 0.0016 W/m/K | thermal conductivity (193.45 K, 13266 kPa): 0.07945 ± 0.0016 W/m/K | thermal conductivity (193.48 K, 6427 kPa): 0.07813 ± 0.0016 W/m/K | thermal conductivity (193.48 K, 6455 kPa): 0.07812 ± 0.0016 W/m/K | thermal conductivity (193.51 K, 179 kPa): 0.07701 ± 0.0016 W/m/K | thermal conductivity (193.52 K, 180 kPa): 0.07688 ± 0.0016 W/m/K | thermal conductivity (211.41 K, 165 kPa): 0.07448 ± 0.0015 W/m/K | thermal conductivity (211.41 K, 170 kPa): 0.07442 ± 0.0015 W/m/K | thermal conductivity (211.41 K, 5799 kPa): 0.07599 ± 0.0016 W/m/K | thermal conductivity (211.41 K, 5800 kPa): 0.0759 ± 0.0016 W/m/K | thermal conductivity (211.41 K, 12664 kPa): 0.07737 ± 0.0016 W/m/K | thermal conductivity (211.41 K, 12666 kPa): 0.07746 ± 0.0016 W/m/K | thermal conductivity (211.41 K, 19434 kPa): 0.07882 ± 0.0016 W/m/K and 0.07893 ± 0.0016 W/m/K | thermal conductivity (211.43 K, 26838 kPa): 0.08023 ± 0.0016 W/m/K | thermal conductivity (211.43 K, 26842 kPa): 0.08059 ± 0.0017 W/m/K | thermal conductivity (211.43 K, 34778 kPa): 0.08175 ± 0.0017 W/m/K | thermal conductivity (211.43 K, 34786 kPa): 0.0823 ± 0.0017 W/m/K | thermal conductivity (211.76 K, 52040 kPa): 0.08466 ± 0.0017 W/m/K | thermal conductivity (211.76 K, 52042 kPa): 0.08451 ± 0.0017 W/m/K | thermal conductivity (211.77 K, 60806 kPa): 0.08612 ± 0.0018 W/m/K | thermal conductivity (211.77 K, 60808 kPa): 0.0862 ± 0.0018 W/m/K | thermal conductivity (211.77 K, 67154 kPa): 0.087 ± 0.0018 W/m/K | thermal conductivity (211.78 K, 67150 kPa): 0.08734 ± 0.0018 W/m/K | thermal conductivity (211.8 K, 12660 kPa): 0.07728 ± 0.0016 W/m/K | thermal conductivity (211.8 K, 19446 kPa): 0.07881 ± 0.0016 W/m/K | thermal conductivity (211.8 K, 19450 kPa): 0.07869 ± 0.0016 W/m/K | thermal conductivity (211.81 K, 173 kPa): 0.07406 ± 0.0015 W/m/K | thermal conductivity (211.81 K, 5801 kPa): 0.07566 ± 0.0016 W/m/K | thermal conductivity (211.81 K, 5813 kPa): 0.07576 ± 0.0016 W/m/K | thermal conductivity (211.81 K, 12660 kPa): 0.0775 ± 0.0016 W/m/K | thermal conductivity (211.81 K, 26841 kPa): 0.07965 ± 0.0016 W/m/K | thermal conductivity (211.81 K, 26845 kPa): 0.08017 ± 0.0016 W/m/K | thermal conductivity (211.81 K, 34792 kPa): 0.08166 ± 0.0017 W/m/K | thermal conductivity (211.81 K, 34801 kPa): 0.08137 ± 0.0017 W/m/K | thermal conductivity (211.81 K, 43011 kPa): 0.08307 ± 0.0017 W/m/K | thermal conductivity (211.81 K, 43012 kPa): 0.0834 ± 0.0017 W/m/K | thermal conductivity (211.82 K, 163 kPa): 0.07354 ± 0.0015 W/m/K | thermal conductivity (212.17 K, 60783 kPa): 0.08526 ± 0.0018 W/m/K | thermal conductivity (212.17 K, 60795 kPa): 0.08562 ± 0.0018 W/m/K | thermal conductivity (212.17 K, 67130 kPa): 0.08706 ± 0.0018 W/m/K | thermal conductivity (212.18 K, 52048 kPa): 0.08429 ± 0.0017 W/m/K | thermal conductivity (212.18 K, 52063 kPa): 0.08422 ± 0.0017 W/m/K | thermal conductivity (212.18 K, 67138 kPa): 0.08699 ± 0.0018 W/m/K | thermal conductivity (212.23 K, 26847 kPa): 0.0801 ± 0.0016 W/m/K | thermal conductivity (212.23 K, 34793 kPa): 0.08106 ± 0.0017 W/m/K | thermal conductivity (212.23 K, 34794 kPa): 0.08097 ± 0.0017 W/m/K | thermal conductivity (212.23 K, 43021 kPa): 0.08227 ± 0.0017 W/m/K | thermal conductivity (212.24 K, 12668 kPa): 0.07725 ± 0.0016 W/m/K | thermal conductivity (212.24 K, 19437 kPa): 0.07855 ± 0.0016 W/m/K | thermal conductivity (212.24 K, 26845 kPa): 0.07971 ± 0.0016 W/m/K | thermal conductivity (212.25 K, 12667 kPa): 0.07727 ± 0.0016 W/m/K | thermal conductivity (212.26 K, 5796 kPa): 0.07549 ± 0.0015 W/m/K | thermal conductivity (212.27 K, 173 kPa): 0.0737 ± 0.0015 W/m/K | thermal conductivity (212.27 K, 5805 kPa): 0.07454 ± 0.0015 W/m/K | thermal conductivity (212.28 K, 168 kPa): 0.07378 ± 0.0015 W/m/K | thermal conductivity (212.61 K, 67097 kPa): 0.08653 ± 0.0018 W/m/K | thermal conductivity (212.61 K, 67117 kPa): 0.08664 ± 0.0018 W/m/K | thermal conductivity (212.62 K, 52074 kPa): 0.0837 ± 0.0017 W/m/K | thermal conductivity (212.62 K, 60785 kPa): 0.08529 ± 0.0018 W/m/K | thermal conductivity (212.62 K, 60787 kPa): 0.08543 ± 0.0018 W/m/K | thermal conductivity (212.63 K, 52063 kPa): 0.08349 ± 0.0017 W/m/K | thermal conductivity (212.68 K, 43009 kPa): 0.08278 ± 0.0017 W/m/K
